# Measured values published in ChEMBL document CHEMBL1201862, “PubChem BioAssay data set” (2004).
#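 Growth conditions: 96-well plates. Treatment: test compound, 48 hours, 5 concentrations. Analysis: linear interpolation between bracketing concentrations; unreached endpoints set to highest concentration. GI50 marks 50% less growth.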 Active and inactive are the calls of the source. Cut-off read from the data, not from the text of the source: active = GI50 up to about 1.1 µM and inactive = higher. Where a SMILES comes first, the peptide text is derived from it. The star is where a group is joined. Boc = CC(C)(C)OC(=O)*
# Tests used:
# Experiment in all cases: DTP human tumour cell line panel, 48 h
# ACHN = test system: ACHN
# EKVX = test system: EKVX
# HCC 2998 = test system: HCC 2998
# Hs-578T = test system: Hs-578T
# IGROV-1 = test system: IGROV-1
# MDA-MB-435 = test system: MDA-MB-435
# NCI/ADR-RES = test system: NCI/ADR-RES
# OVCAR-3 = test system: OVCAR-3
# RXF 393 = test system: RXF 393
# SK-MEL-2 = test system: SK-MEL-2
# SK-OV-3 = test system: SK-OV-3
# UO-31 = test system: UO-31
# DU-145 = test system: DU-145
# MDA-N = test system: MDA-N
# MOLT-4 = test system: MOLT-4
# Malme-3M = test system: Malme-3M
Compound,GI50 (ACHN),GI50 (EKVX),GI50 (HCC 2998),GI50 (Hs-578T),GI50 (IGROV-1),GI50 (MDA-MB-435),GI50 (NCI/ADR-RES),GI50 (OVCAR-3),GI50 (RXF 393),GI50 (SK-MEL-2),GI50 (SK-OV-3),GI50 (UO-31),GI50 (DU-145),GI50 (MDA-N),GI50 (MOLT-4),GI50 (Malme-3M)
N#C/N=[N+](\[O-])c1ccc(C(=O)O)cc1,18.4 µM (inactive),18.4 µM (inactive),25.5 µM (inactive),30.8 µM (inactive),43.5 µM (inactive),17.9 µM (inactive),19.3 µM (inactive),15.2 µM (inactive),16.1 µM (inactive),18.7 µM (inactive),18.6 µM (inactive),16.6 µM (inactive),,,,
C=Cc1cnc([N+](=O)[O-])n1C,52 µM (inactive),> 100 µM (inactive),42.7 µM (inactive),35.7 µM (inactive),,60.8 µM (inactive),> 100 µM (inactive),69.7 µM (inactive),,,71 µM (inactive),27.4 µM (inactive),37.1 µM (inactive),40 µM (inactive),53.8 µM (inactive),38.1 µM (inactive)
COP(C)(=O)/C(Cc1ccccc1)=N\O (stereo unspecified),> 100 µM (inactive),,> 100 µM (inactive),> 100 µM (inactive),> 100 µM (inactive),> 100 µM (inactive),> 100 µM (inactive),> 100 µM (inactive),,> 100 µM (inactive),> 100 µM (inactive),> 100 µM (inactive),> 100 µM (inactive),> 100 µM (inactive),> 100 µM (inactive),
COc1ccc(C(C2C(=O)N(C)C(=O)N(C)C2=O)C(F)(F)C(=O)N(C)C)cc1 (stereo unspecified),> 100 µM (inactive),> 100 µM (inactive),> 100 µM (inactive),,,> 100 µM (inactive),> 100 µM (inactive),> 100 µM (inactive),> 100 µM (inactive),> 100 µM (inactive),> 100 µM (inactive),> 100 µM (inactive),> 100 µM (inactive),,,> 100 µM (inactive)
COc1ccc(/C=N/n2c(C)n[nH]c2=O)c(OC)c1,> 100 µM (inactive),83 µM (inactive),> 100 µM (inactive),3.08 µM (inactive),,90.4 µM (inactive),> 100 µM (inactive),> 100 µM (inactive),,> 100 µM (inactive),> 100 µM (inactive),> 100 µM (inactive),71.6 µM (inactive),> 100 µM (inactive),85.1 µM (inactive),> 100 µM (inactive)
O=C1c2ccccc2C(=O)N1CC1(C(=O)O)NCCS1(=O)=O (stereo unspecified),> 100 µM (inactive),91.4 µM (inactive),,> 100 µM (inactive),> 100 µM (inactive),> 100 µM (inactive),> 100 µM (inactive),> 100 µM (inactive),> 100 µM (inactive),> 100 µM (inactive),> 100 µM (inactive),> 100 µM (inactive),,> 100 µM (inactive),> 100 µM (inactive),> 100 µM (inactive)
CC(=O)[C@@]1(c2ccccc2)CC2(CCN(C)CC2)O[C@H]1C,> 100 µM (inactive),> 100 µM (inactive),,,> 100 µM (inactive),> 100 µM (inactive),> 100 µM (inactive),> 100 µM (inactive),> 100 µM (inactive),,> 100 µM (inactive),> 100 µM (inactive),> 100 µM (inactive),> 100 µM (inactive),> 100 µM (inactive),> 100 µM (inactive)
O=CNCNCCO,> 100 µM (inactive),> 100 µM (inactive),> 100 µM (inactive),> 100 µM (inactive),> 100 µM (inactive),,> 100 µM (inactive),> 100 µM (inactive),> 100 µM (inactive),> 100 µM (inactive),> 100 µM (inactive),> 100 µM (inactive),> 100 µM (inactive),,> 100 µM (inactive),> 100 µM (inactive)
NC(=O)c1ccccc1NC(=O)C(=O)C(c1cnc2ccc([N+](=O)[O-])cc2n1)[N+](=O)[O-] (stereo unspecified),23.5 µM (inactive),> 100 µM (inactive),> 100 µM (inactive),> 100 µM (inactive),> 100 µM (inactive),> 100 µM (inactive),> 100 µM (inactive),> 100 µM (inactive),> 100 µM (inactive),> 100 µM (inactive),> 100 µM (inactive),28.9 µM (inactive),,,46.3 µM (inactive),> 100 µM (inactive)
CN(Cc1cnc2nc(N)nc(N)c2n1)c1ccc(C(=O)N[C@@H](CCS(=O)(=O)O)C(=O)O)cc1,0.225 µM (active),> 73.3 µM (inactive),0.61 µM (active),> 100 µM (inactive),0.431 µM (active),,1.18 µM (inactive),> 49.5 µM (inactive),0.0611 µM (active),> 100 µM (inactive),,0.698 µM (active),0.562 µM (active),0.057 µM (active),0.745 µM (active),
COc1ccc(-c2csc3c2[N+]2(C)C=CC=C2C3N2CCCC2)cc1 (stereo unspecified),44.8 µM (inactive),20.5 µM (inactive),,15.7 µM (inactive),11.2 µM (inactive),3.13 µM (inactive),17.3 µM (inactive),13.3 µM (inactive),21.3 µM (inactive),10.6 µM (inactive),49.1 µM (inactive),57 µM (inactive),,7.6 µM (inactive),27.5 µM (inactive),12.2 µM (inactive)
CN1CN(c2ccccc2)C2(CCN(CCCC(=O)c3cccs3)CC2)C1=O,40.2 µM (inactive),31.5 µM (inactive),19.5 µM (inactive),,41.3 µM (inactive),,41 µM (inactive),37.2 µM (inactive),> 100 µM (inactive),,38.4 µM (inactive),33 µM (inactive),36.6 µM (inactive),68.7 µM (inactive),32.8 µM (inactive),54.1 µM (inactive)
CCOC(=O)c1cn2c(n1)sc1cc([N+](=O)[O-])ccc12,92.3 µM (inactive),> 100 µM (inactive),> 100 µM (inactive),> 100 µM (inactive),> 100 µM (inactive),> 100 µM (inactive),> 100 µM (inactive),> 100 µM (inactive),> 100 µM (inactive),> 100 µM (inactive),> 100 µM (inactive),> 100 µM (inactive),> 100 µM (inactive),,> 100 µM (inactive),> 100 µM (inactive)
O=C(O)C1(Cc2ccc3c(c2)CCC3)Cc2cc3c(cc2C1)CCC3,> 100 µM (inactive),> 100 µM (inactive),> 100 µM (inactive),> 100 µM (inactive),> 100 µM (inactive),> 100 µM (inactive),,> 100 µM (inactive),,> 100 µM (inactive),> 100 µM (inactive),> 100 µM (inactive),> 100 µM (inactive),> 100 µM (inactive),> 100 µM (inactive),> 100 µM (inactive)
COc1cc(C)cc(OC)c1/C=C/C(=O)O,> 100 µM (inactive),> 100 µM (inactive),> 100 µM (inactive),24.8 µM (inactive),> 100 µM (inactive),> 100 µM (inactive),> 100 µM (inactive),21.5 µM (inactive),> 100 µM (inactive),> 100 µM (inactive),,> 100 µM (inactive),,> 100 µM (inactive),> 100 µM (inactive),> 100 µM (inactive)
COc1cc(CO)c(CC(=O)NCCCc2ccccc2)cc1OC,> 100 µM (inactive),> 100 µM (inactive),> 100 µM (inactive),> 100 µM (inactive),> 100 µM (inactive),56 µM (inactive),99.1 µM (inactive),> 100 µM (inactive),,> 100 µM (inactive),,> 100 µM (inactive),> 100 µM (inactive),34.1 µM (inactive),> 100 µM (inactive),> 100 µM (inactive)
CCN(CCO)C(=O)C1(c2ccccc2)CCCCC1,> 10 µM (inactive),> 10 µM (inactive),> 10 µM (inactive),> 10 µM (inactive),> 10 µM (inactive),> 10 µM (inactive),> 10 µM (inactive),> 10 µM (inactive),> 10 µM (inactive),> 10 µM (inactive),> 10 µM (inactive),> 10 µM (inactive),> 10 µM (inactive),,> 10 µM (inactive),> 10 µM (inactive)
BrP(NC1CCCCCC1)(c1ccccc1)(c1ccccc1)c1ccccc1,3.27 µM (inactive),7.14 µM (inactive),2.04 µM (inactive),3 µM (inactive),3.96 µM (inactive),2.15 µM (inactive),44 µM (inactive),3.38 µM (inactive),2.2 µM (inactive),2.44 µM (inactive),,4.25 µM (inactive),8.26 µM (inactive),,,2.93 µM (inactive)
COC(=O)[C@H](Cc1ccc(O)cc1)NC(=O)[C@H](Cc1ccc(O)cc1)NC(=O)OC(C)(C)C (Boc-Tyr-Tyr-OMe),> 100 µM (inactive),> 100 µM (inactive),39.4 µM (inactive),> 100 µM (inactive),56.6 µM (inactive),,> 100 µM (inactive),72.3 µM (inactive),49.7 µM (inactive),,> 100 µM (inactive),> 100 µM (inactive),> 100 µM (inactive),> 100 µM (inactive),,> 100 µM (inactive)
Oc1cc(O)c2c(c1)O[C@H](c1ccc(O)c(O)c1)[C@@H](O)C2 [CIANIDANOL],> 100 µM (inactive),> 100 µM (inactive),> 100 µM (inactive),> 100 µM (inactive),> 100 µM (inactive),> 100 µM (inactive),> 100 µM (inactive),> 100 µM (inactive),,> 100 µM (inactive),,> 100 µM (inactive),> 100 µM (inactive),> 100 µM (inactive),> 100 µM (inactive),> 100 µM (inactive)
